From ChEMBL document CHEMBL1201862, “PubChem BioAssay data set” (2004)
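Five compound concentrations were applied to cells in 96-well plates for 48 hours; endpoints were derived by simple linear interpolation of the resulting dose-response curve. GI50 = concentration required for 50% inhibition of growth.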 Activity calls are given as the source filed them. Cut-off read from the data, not from the text of the source: active = GI50 up to about 1.1 µM and inactive = higher.

How the values were obtained:
Experiment in all cases: growth of human tumour cells (NCI), 48 h
RXF 393 = system: RXF 393
Hs-578T = system: Hs-578T
LOX IMVI = system: LOX IMVI
NCI-H460 = system: NCI-H460
T47D = system: T47D
SK-MEL-2 = system: SK-MEL-2
UACC-62 = system: UACC-62
HCC 2998 = system: HCC 2998
U-251 = system: U-251
DU-145 = system: DU-145
NCI-H226 = system: NCI-H226
NCI/ADR-RES = system: NCI/ADR-RES
MOLT-4 = system: MOLT-4
M14 = system: M14
SN12C = system: SN12C
CAKI-1 = system: CAKI-1
ACHN = system: ACHN
SNB-75 = system: SNB-75
SF-268 = system: SF-268
HT-29 = system: HT-29
COLO 205 = system: COLO 205
PC-3 = system: PC-3
HOP-92 = system: HOP-92
OVCAR-8 = system: OVCAR-8
OVCAR-4 = system: OVCAR-4
UO-31 = system: UO-31
KM12 = system: KM12
IGROV-1 = system: IGROV-1
SR = system: SR
HOP-62 = system: HOP-62
MDA-N = system: MDA-N
MDA-MB-435 = system: MDA-MB-435
A549 = system: A549
EKVX = system: EKVX
HCT-116 = system: HCT-116
SK-OV-3 = system: SK-OV-3
OVCAR-5 = system: OVCAR-5
NCI-H23 = system: NCI-H23
TK-10 = system: TK-10
SK-MEL-28 = system: SK-MEL-28
MCF7 = system: MCF7
SNB-19 = system: SNB-19
MDA-MB-231 = system: MDA-MB-231
Malme-3M = system: Malme-3M
CCRF-CEM = system: CCRF-CEM
NCI-H522 = system: NCI-H522
OVCAR-3 = system: OVCAR-3
SF-295 = system: SF-295
A498 = system: A498
SW-620 = system: SW-620
SF-539 = system: SF-539
HCT-15 = system: HCT-15
786-0 = system: 786-0
SK-MEL-5 = system: SK-MEL-5
K562 = system: K562
UACC-257 = system: UACC-257
RPMI-8226 = system: RPMI-8226
HL-60 = system: HL-60

Measured: GI50

OC1C2CCC3C2CC(C(O)(c2ccccc2)c2ccccc2)C13 (stereo not drawn)
inactive: RXF 393 34.7 µM | Hs-578T 45.9 µM | LOX IMVI 37.8 µM | NCI-H460 41.3 µM | T47D 79.3 µM | SK-MEL-2 18.4 µM | UACC-62 47.5 µM | HCC 2998 > 100 µM | U-251 70.3 µM | DU-145 > 100 µM | NCI-H226 28.6 µM | NCI/ADR-RES 36.6 µM | MOLT-4 35.8 µM | M14 65.8 µM | SN12C 21.9 µM | CAKI-1 40 µM | ACHN 33.7 µM | SNB-75 5.47 µM | SF-268 > 100 µM | HT-29 74.5 µM | COLO 205 18.5 µM | PC-3 21.4 µM | HOP-92 45.2 µM | OVCAR-8 93.1 µM | OVCAR-4 > 100 µM | UO-31 67.6 µM | KM12 61.7 µM | IGROV-1 23.9 µM | SR 32.7 µM | HOP-62 63.2 µM | MDA-N 33.3 µM | MDA-MB-435 32.6 µM | A549 36.6 µM | EKVX 33.8 µM | HCT-116 36.1 µM | SK-OV-3 > 100 µM | OVCAR-5 > 100 µM | NCI-H23 44.5 µM | TK-10 73.5 µM | SK-MEL-28 > 100 µM | MCF7 84.5 µM | SNB-19 > 100 µM | MDA-MB-231 29.6 µM | Malme-3M 28.4 µM | CCRF-CEM 29.4 µM | NCI-H522 34.8 µM | OVCAR-3 29.9 µM | SF-295 28 µM | A498 37 µM | SW-620 > 100 µM | SF-539 38.3 µM | 786-0 37.5 µM | SK-MEL-5 28.6 µM | K562 18.2 µM | UACC-257 24.6 µM
31.5 µM: HCT-15

COc1cc(OC)c(OC)cc1/C=N/N=C(\N)NO
> 100 µM: HCT-15
inactive: RXF 393 > 100 µM | Hs-578T > 100 µM | LOX IMVI > 100 µM | NCI-H460 > 100 µM | T47D > 100 µM | SK-MEL-2 99.8 µM | UACC-62 > 100 µM | HCC 2998 > 100 µM | U-251 > 100 µM | DU-145 > 100 µM | NCI-H226 61.4 µM | NCI/ADR-RES > 100 µM | MOLT-4 > 100 µM | M14 > 100 µM | SN12C > 100 µM | CAKI-1 > 100 µM | ACHN 56.2 µM | SNB-75 21.9 µM | SF-268 > 100 µM | HT-29 > 100 µM | COLO 205 80 µM | PC-3 > 100 µM | HOP-92 77.6 µM | OVCAR-8 > 100 µM | OVCAR-4 > 100 µM | UO-31 > 100 µM | KM12 18.5 µM | IGROV-1 > 100 µM | SR > 100 µM | HOP-62 > 100 µM | MDA-N > 100 µM | MDA-MB-435 68.2 µM | A549 > 100 µM | EKVX > 100 µM | HCT-116 > 100 µM | SK-OV-3 > 100 µM | OVCAR-5 > 100 µM | NCI-H23 > 100 µM | TK-10 > 100 µM | SK-MEL-28 > 100 µM | MCF7 > 100 µM | SNB-19 > 100 µM | MDA-MB-231 > 100 µM | Malme-3M > 100 µM | RPMI-8226 68.9 µM | CCRF-CEM > 100 µM | NCI-H522 > 100 µM | OVCAR-3 > 100 µM | SF-295 51.1 µM | A498 > 100 µM | SW-620 > 100 µM | SF-539 > 100 µM | 786-0 > 100 µM | SK-MEL-5 > 100 µM | HL-60 83.9 µM | K562 88.7 µM | UACC-257 > 100 µM

CC1(CO)COS(=O)OC1 (stereo not drawn)
> 100 µM: HCT-15
inactive: RXF 393 > 100 µM | Hs-578T > 100 µM | LOX IMVI > 100 µM | NCI-H460 > 100 µM | T47D > 100 µM | HCC 2998 > 100 µM | U-251 > 100 µM | DU-145 > 100 µM | NCI-H226 > 100 µM | NCI/ADR-RES > 100 µM | MOLT-4 > 100 µM | SN12C > 100 µM | ACHN > 100 µM | SNB-75 > 100 µM | SF-268 > 100 µM | HT-29 > 100 µM | COLO 205 > 100 µM | PC-3 > 100 µM | HOP-92 > 100 µM | OVCAR-8 > 100 µM | OVCAR-4 > 100 µM | UO-31 > 100 µM | KM12 > 100 µM | SR > 100 µM | MDA-N > 100 µM | MDA-MB-435 > 100 µM | A549 > 100 µM | HCT-116 > 100 µM | SK-OV-3 > 100 µM | NCI-H23 > 100 µM | TK-10 > 100 µM | SK-MEL-28 > 100 µM | MCF7 > 100 µM | SNB-19 > 100 µM | MDA-MB-231 > 100 µM | CCRF-CEM > 100 µM | NCI-H522 > 100 µM | OVCAR-3 > 100 µM | SF-295 > 100 µM | A498 1.89 µM | SW-620 > 100 µM | SK-MEL-5 > 100 µM | UACC-257 > 100 µM
